Data reported in patent publication CN101069680A, “2-羟基-4-甲基苯磺酸制剂的制备及其应用” (BEIJING HUARUI DINGXIN TECHNOLOGY Co Ltd, priority 2007, dated 2007).

Tests used:
[1] = tested on: Staphylococcus aureus 9776 (金葡菌9776); assay: In vitro antibacterial effect, tube method; set-up: key to antibacterial effect: -: 有明显抑菌作用; +: 没有抑菌作用; conditions: 1% solution mixed with MH broth
[2] = tested on: Candida albicans (白色念珠菌); assay: In vitro antibacterial effect, tube method (summary for the selected strains); conditions: 1% solution mixed with MH broth
[3] = tested on: beta-hemolytic streptococcus 96 (乙型链球菌96); assay: In vitro antibacterial effect, tube method; set-up: key to antibacterial effect: -: 有明显抑菌作用; +: 没有抑菌作用; conditions: 1% solution mixed with MH broth with 5% defibrinated sheep blood
[4] = tested on: Escherichia coli 26 (大肠埃希氏菌26); assay: In vitro antibacterial effect, tube method; set-up: key to antibacterial effect: -: 有明显抑菌作用; +: 没有抑菌作用; conditions: 1% solution mixed with MH broth
[5] = tested on: Candida albicans 6 (白色念珠菌6); assay: In vitro antibacterial effect, tube method; set-up: key: -: 有明显抑菌作用; +: 没有抑菌作用; conditions: 1% solution mixed with MH broth with 5% glucose, 37°C, 24 h
[6] = tested on: egg white (蛋清); assay: Astringent / coagulating effect on protein (precipitation of egg white); set-up: key to protein precipitation: -: 未见白色沉淀; +: 隐约可见白色沉淀; +: 有少量白色沉淀; ++: 有较多白色沉淀; +++: 有大量白色沉淀; conditions: for protein precipitation: 0.2 ml added to 5 ml of 5% egg white
[7] = tested on: Enterococcus faecalis 755 (粪肠球菌755); assay: In vitro antibacterial effect, tube method; set-up: key to antibacterial effect: -: 有明显抑菌作用; +: 没有抑菌作用; conditions: 1% solution mixed with MH broth with 5% defibrinated sheep blood
[8] = tested on: cervical erosion model rats (宫颈糜烂模型大鼠); assay: Therapeutic effect on cervical erosion model rats: degree of cervical inflammation / pathology; assay type: in vivo, rat; conditions: intravaginal, 12 days, positive control 0.02 g/kg, Example 2 gel 0.1048 g/kg
[9] = tested on: Candida albicans 2 (白色念珠菌2); assay: In vitro antibacterial effect, tube method; set-up: key: -: 有明显抑菌作用; +: 没有抑菌作用; conditions: 1% solution mixed with MH broth with 5% glucose, 37°C, 24 h
[10] = tested on: cervical erosion model rats (宫颈糜烂模型大鼠); assay: Therapeutic effect on cervical erosion model rats: body weight, vagina and cervix weight index, white blood cell count; assay type: in vivo, rat; conditions: intravaginal, 12 days, positive control 0.02 g/kg, Example 2 gel 0.1048 g/kg
[11] = tested on: Candida albicans 12 (白色念珠菌12); assay: In vitro antibacterial effect, tube method; set-up: key: -: 有明显抑菌作用; +: 没有抑菌作用; conditions: 1% solution mixed with MH broth with 5% glucose, 37°C, 24 h
[12] = tested on: Staphylococcus epidermidis 26069 (表葡菌26069); assay: In vitro antibacterial effect, tube method; set-up: key to antibacterial effect: -: 有明显抑菌作用; +: 没有抑菌作用; conditions: 1% solution mixed with MH broth
[13] = tested on: Candida albicans 10 (白色念珠菌10); assay: In vitro antibacterial effect, tube method; set-up: key: -: 有明显抑菌作用; +: 没有抑菌作用; conditions: 1% solution mixed with MH broth with 5% glucose, 37°C, 24 h
[14] = number of rats out of 8 per group

## Cc1ccc(S(=O)(=O)O)c(O)c1 [2-羟基-4-甲基苯磺酸]
[1]
  inhibitory effect (in words): 有明显的抑制作用
[1]; 37°C, 24 h
  antibacterial effect: -
[2]
  inhibitory effect (in words): 有明显的抑制作用
[3]
  antibacterial effect (in words): 没有抑菌作用
[3]; 37°C, 24 h
  antibacterial effect: +
[4]
  inhibitory effect (in words): 有明显的抑制作用
[4]; 37°C, 24 h
  antibacterial effect: -
[5]
  antibacterial effect: -
[6]; concentration of the added solution
  threshold concentration for astringent coagulating effect on protein: 0.39%
[6]; same concentration
  astringent coagulating effect compared with tannic acid: 弱于同浓度的鞣酸
[6]; test substance solution 0.098% (tube 10)
  protein precipitation: -
[6]; test substance solution 0.195% (tube 9)
  protein precipitation: -
[6]; test substance solution 0.78% (tube 7)
  protein precipitation: +
[6]; test substance solution 1.56% (tube 6)
  protein precipitation: +
[6]; test substance solution 3.125% (tube 5)
  protein precipitation: ++
[6]; test substance solution 6.25% (tube 4)
  protein precipitation: +++
[6]; test substance solution 12.5% (tube 3)
  protein precipitation: +++
[6]; test substance solution 25% (tube 2)
  protein precipitation: +++
[6]; test substance solution 50% (tube 1)
  protein precipitation: +++
[7]
  antibacterial effect (in words): 没有抑菌作用
[7]; 37°C, 24 h
  antibacterial effect: +
[8]; inflammation grade vs model group, * = significant difference
  Ridit test u value: 2.8146
[8]; [14]
  inflammation degree grade: mild: 2
  inflammation degree grade: moderate: 1
  inflammation degree grade: normal: 4
  inflammation degree grade: severe: 1
[9]
  antibacterial effect: -
[10]; 1 h after last dose, *P<0.05 vs model
  body weight after test: 249.6 ± 26.7 g
[10]; blood, after last dose, *P<0.05, **p<0.01 vs model
  total white blood cell count: 5.74±0.88 10^9g/L
[10]; *P<0.05 vs model
  vagina and cervix weight index: 0.268±0.102 g/100g body weight
[11]
  antibacterial effect: -
[12]
  inhibitory effect (in words): 有明显的抑制作用
[12]; 37°C, 24 h
  antibacterial effect: -
[13]
  antibacterial effect: -
